Laboratory results: patent publication EP4610269A1, “UROKINASE PLASMINOGEN ACTIVATOR SURFACE RECEPTOR (UPAR) LIGANDS FOR DIAGNOSTIC OR THERAPEUTIC USE” (3B Pharmaceuticals GmbH, priority 2024, dated 2025)
*1 amine or outer side, *2 acyl side, *3 side chain or, on linkers, in order; H or OH if unused. Where a SMILES comes first, the peptide text is derived from it. Bridges are numbered along the chain shown (N, C = ends). [ ]: non-standard residue; d: D form. The star is where a group is joined. DOTA = O=C(O)CN1CCN(CC(=O)O)CCN(CC(=O)*)CCN(CC(=O)O)CC1; Phe(3-Cl) = N[C@@H](Cc1cccc(Cl)c1)C(=O)O; Pro(cis-4-F) = O=C(O)[C@@H]1C[C@H](F)CN1; Tyr(3-NH2) = Nc1cc(C[C@H](N)C(=O)O)ccc1O; Hyp = O=C(O)[C@@H]1C[C@@H](O)CN1; Pentanoyl(4-Me) = CC(C)CCC(=O)*; Cit = NC(=O)NCCC[C@H](N)C(=O)O; Butoxycarbonyl = CCCCOC(=O)*; Pip = O=C(O)[C@@H]1CCCCN1; Nle = CCCC[C@H](N)C(=O)O; Orn = NCCC[C@H](N)C(=O)O; Dab = NCC[C@H](N)C(=O)O; Nva = CCC[C@H](N)C(=O)O; Hexanoyl = CCCCCC(=O)*; Pentanoyl = CCCCC(=O)*; CO = O=C([*:1])[*:2]; NHBu = CCCCN*

Experiments:
[1] = target: T1, uPAR-expressing HEC-265 human endometrial adenocarcinoma cells (Homo sapiens, UniProt Q03405); assay: Competitive FACS binding assay; details: pIC50 category of FACS binding
T1 construct: Cell surface uPAR-expressing HEC-265 human endometrial adenocarcinoma cells; host or cells: HEC-265
T1 sequence (Q03405 23-335): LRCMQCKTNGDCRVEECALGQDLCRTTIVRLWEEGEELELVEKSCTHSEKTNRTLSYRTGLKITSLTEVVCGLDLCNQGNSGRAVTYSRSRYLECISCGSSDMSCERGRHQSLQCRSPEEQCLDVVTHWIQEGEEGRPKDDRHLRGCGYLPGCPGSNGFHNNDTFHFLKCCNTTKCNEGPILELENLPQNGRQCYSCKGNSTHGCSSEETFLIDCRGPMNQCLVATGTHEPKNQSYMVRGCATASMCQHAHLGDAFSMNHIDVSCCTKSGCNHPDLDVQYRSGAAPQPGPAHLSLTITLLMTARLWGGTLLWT
Method in brief: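 Competitive displacement of a 10 nM biotinylated peptide from HEC-265 cells (1 h, 4 °C, PBS/1% BSA), detected via APC-streptavidin by flow cytometry. pIC50 from four-parameter logistic fit of median fluorescence versus concentration.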

human uPAR (uPAR-Fc) = target: T2, human uPAR (uPAR-Fc) (Homo sapiens, UniProt Q03405); assay: Surface plasmon resonance (SPR) assay, single cycle kinetics; type: binding; details: pKD category for uPAR SPR activity assay; uPAR-Fc on Protein A-Chip, 25°C; read-out: pKD CAT (converted)
T2 construct: comprising amino acids Leu23-Arg303 according to UniProt entry Q03405.1; purchased R&D Systems 10378-UK-100
T2 sequence (Q03405 23-303): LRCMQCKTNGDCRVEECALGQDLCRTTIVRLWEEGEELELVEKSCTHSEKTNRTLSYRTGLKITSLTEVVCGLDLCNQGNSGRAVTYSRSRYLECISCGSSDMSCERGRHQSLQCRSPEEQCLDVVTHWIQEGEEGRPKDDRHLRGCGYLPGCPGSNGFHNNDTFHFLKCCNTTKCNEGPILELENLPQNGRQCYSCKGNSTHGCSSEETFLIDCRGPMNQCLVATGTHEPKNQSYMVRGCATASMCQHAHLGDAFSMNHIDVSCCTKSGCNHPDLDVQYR
Method in brief: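 uPAR-Fc (Leu23-Arg303 extracellular domains, human IgG1 Fc) captured on Protein A chip to ~2000 RU; single-cycle kinetics at 25°C in HEPES running buffer pH 7.4 with 0.1% DMSO. KD from double-referenced sensorgrams fitted to 1:1 Langmuir model, reported as pKD.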

IC50 [1] [µM] | Kd (human uPAR (uPAR-Fc)) [µM] | SMILES
≤ 0.01 | < 0.00158 | CCCCC(=O)N[C@H]1CSSC[C@@H](C(N)=O)NC(=O)[C@H](CCC)NC(=O)[C@H]([C@@H](C)CC)NC(=O)[C@H](Cc2ccc(O)cc2)NC(=O)[C@@H]2CCCN2C(=O)[C@H](Cc2ccccc2)NC(=O)[C@H](Cc2ccc(O)cc2)NC(=O)[C@H](CCC(N)=O)NC(=O)[C@H](CCCNC(=N)N)NC1=O [UPAR-226, Pent-[Cys-Arg-Gln-Tyr-Phe-Pro-Tyr-Ile-Nva-Cys]-NH2] (Pentanoyl-CRQYFPYI[Nva]C-NH2; disulfide 1-10)
≤ 0.01 | < 0.00158 | CC[C@H](C)[C@@H]1NC(=O)[C@@H](C)NC(=O)[C@@H]2CCCN2C(=O)[C@H](Cc2cccc(Cl)c2)NC(=O)[C@H](Cc2ccc(O)cc2)NC(=O)[C@H](CCC(N)=O)NC(=O)[C@H](CCCNC(N)=O)NC(=O)[C@@H](NC(=O)CCC(C)C)CSSC[C@@H](C(N)=O)NC(=O)[C@H](CC(C)C)NC1=O [UPAR-227, iHex-[Cys-Cit-Gln-Tyr-Mcf-Pro-ala-Ile-Leu-Cys]-NH2] ({Pentanoyl(4-Me)}-C[Cit]QY[Phe(3-Cl)]P[dA]ILC-NH2; disulfide 1-10)
≥ 0.126 | > 0.1 | CCCC[C@@H]1NC(=O)[C@H](CCCNC(=N)N)NC(=O)[C@@H](NC(=O)[C@H](CC(C)C)NC(=O)[C@H](CC(=O)O)NC(C)=O)CSSC[C@@H](C(N)=O)NC(=O)[C@H](CC(C)C)NC(=O)[C@H]([C@@H](C)CC)NC(=O)[C@H](C)NC(=O)[C@@H]2CCCN2C(=O)[C@@H](Cc2ccccc2)NC(=O)[C@H](Cc2ccc(O)cc2)NC1=O [UPAR-230, Ac-Asp-Leu-[Cys-Arg-Nle-Tyr-phe-Pro-Ala-Ile-Leu-Cys]-NH2] (Ac-DLCR[Nle]Y[dF]PAILC-NH2; disulfide 3-12)
0.0398 to 0.1 | 0.01 to 0.1 | CC[C@H](C)[C@@H]1NC(=O)[C@@H](C)NC(=O)[C@@H]2CCCN2C(=O)[C@H](Cc2ccccc2)NC(=O)[C@H](Cc2ccc(O)cc2)NC(=O)[C@H](CCC(N)=O)NC(=O)[C@@H](C)NC(=O)[C@@H](NC(=O)CCC(C)C)CSSC[C@@H](C(N)=O)NC(=O)[C@H](CC(C)C)NC1=O [UPAR-231, iHex-[Cys-ala-Gln-Tyr-Phe-Pro-ala-Ile-Leu-Cys]-NH2] ({Pentanoyl(4-Me)}-C[dA]QYFP[dA]ILC-NH2; disulfide 1-10)
≤ 0.01 | 0.00158 to 0.01 | CC[C@H](C)[C@@H]1NC(=O)[C@@H](C)NC(=O)[C@@H]2CCCCN2C(=O)[C@H](Cc2ccccc2)NC(=O)[C@H](Cc2ccc(O)cc2)NC(=O)[C@H](CCC(N)=O)NC(=O)[C@H](CCCNC(N)=O)NC(=O)[C@@H](NC(=O)CCC(C)C)CSSC[C@@H](C(N)=O)NC(=O)[C@H](CC(C)C)NC1=O [UPAR-232, iHex-[Cys-Cit-Gln-Tyr-Phe-Pip-ala-Ile-Leu-Cys]-NH2] ({Pentanoyl(4-Me)}-C[Cit]QYF[Pip][dA]ILC-NH2; disulfide 1-10)
≤ 0.01 | < 0.00158 | CCCCCC(=O)N[C@@H](CC(=O)O)C(=O)N[C@@H](CC(C)C)C(=O)N[C@H]1CSSC[C@@H](C(N)=O)NC(=O)[C@H](CC(C)C)NC(=O)[C@H]([C@@H](C)CC)NC(=O)[C@H](C)NC(=O)[C@@H]2CCCN2C(=O)[C@H](Cc2ccccc2)NC(=O)[C@H](Cc2ccc(O)cc2)NC(=O)[C@H](CCSC)NC(=O)[C@H](CCCCNC(=O)CN2CCN(CC(=O)O)CCN(CC(=O)O)CCN(CC(=O)O)CC2)NC1=O [UPAR-235, Hex-Asp-Leu-[Cys-Lys(DOTA)-Met-Tyr-Phe-Pro-Ala-Ile-Leu-Cys]-NH2] (Hexanoyl-DLCK(DOTA)MYFPAILC-NH2; disulfide 3-12)
≤ 0.01 | < 0.00158 | CCCCC(=O)N[C@H]1CSSC[C@@H](C(N)=O)NC(=O)[C@H](CCC)NC(=O)[C@H]([C@@H](C)CC)NC(=O)[C@@H]2C[C@@H](O)CN2C(=O)[C@@H]2CCCN2C(=O)[C@H](Cc2ccccc2)NC(=O)[C@H](Cc2ccc(O)cc2)NC(=O)[C@H](CCC(N)=O)NC(=O)CNC1=O [UPAR-236, Pent-[Cys-Gly-Gln-Tyr-Phe-Pro-Hyp-Ile-Nva-Cys]-NH2] (Pentanoyl-CGQYFP[Hyp]I[Nva]C-NH2; disulfide 1-10)
≤ 0.01 | < 0.00158 | CCCC[C@@H]1NC(=O)[C@H](CCC(=O)O)NC(=O)[C@@H](NC(=O)[C@H](CC(C)C)NC(=O)[C@H](CC(=O)O)NC(C)=O)CSSC[C@@H](C(N)=O)NC(=O)[C@H](CC(C)C)NC(=O)[C@H]([C@@H](C)CC)NC(=O)[C@H](C)NC(=O)[C@@H]2CCCN2C(=O)[C@H](Cc2ccccc2)NC(=O)[C@H](Cc2ccc(O)cc2)NC1=O [UPAR-239, Ac-Asp-Leu-[Cys-Glu-Nle-Tyr-Phe-Pro-Ala-Ile-Leu-Cys]-NH2] (Ac-DLCE[Nle]YFPAILC-NH2; disulfide 3-12)
≤ 0.01 | < 0.00158 | CC[C@H](C)[C@@H]1NC(=O)[C@@H]2C[C@@H](O)CN2C(=O)[C@@H]2CCCN2C(=O)[C@H](Cc2ccccc2)NC(=O)[C@H](Cc2ccc(O)cc2)NC(=O)[C@H](CCCCNC(=O)CN2CCN(CC(=O)O)CCN(CC(=O)O)CCN(CC(=O)O)CC2)NC(=O)[C@H](CCCNC(N)=O)NC(=O)[C@@H](NC(=O)CCC(C)C)CSSC[C@@H](C(N)=O)NC(=O)[C@H](CC(C)C)NC1=O [UPAR-240, iHex-[Cys-Cit-Lys(DOTA)-Tyr-Phe-Pro-Hyp-Ile-Leu-Cys]-NH2] ({Pentanoyl(4-Me)}-C[Cit]K(DOTA)YFP[Hyp]ILC-NH2; disulfide 1-10)
≤ 0.01 | < 0.00158 | CCCCNC(=O)N[C@H]1CSSC[C@@H](C(N)=O)NC(=O)[C@H](CCC)NC(=O)[C@H]([C@@H](C)CC)NC(=O)[C@@H]2C[C@@H](O)CN2C(=O)[C@@H]2CCCN2C(=O)[C@H](Cc2ccccc2)NC(=O)[C@H](Cc2ccc(O)cc2)NC(=O)[C@H](CCCCNC(=O)CN2CCN(CC(=O)O)CCN(CC(=O)O)CCN(CC(=O)O)CC2)NC(=O)[C@H]([C@@H](C)O)NC1=O [UPAR-242, nBuCAyl-[Cys-Thr-Lys(DOTA)-Tyr-Phe-Pro-Hyp-Ile-Nva-Cys]-NHz] ({NHBu-CO}-CTK(DOTA)YFP[Hyp]I[Nva]C-NH2; disulfide 1-10)
≥ 0.126 | > 0.1 | CC[C@H](C)[C@@H]1NC(=O)[C@@H](C)NC(=O)[C@@H]2CCCN2C(=O)[C@H](Cc2ccccc2)NC(=O)[C@H](Cc2ccc(O)cc2)NC(=O)[C@H](CCC(N)=O)NC(=O)[C@H](CCCNC(N)=O)NC(=O)[C@@H](NC(C)=O)CSSC[C@@H](C(N)=O)NC(=O)[C@H](CC(C)C)NC1=O [UPAR-243, Ac-[Cys-Cit-Gln-Tyr-Phe-Pro-ala-Ile-Leu-Cys]-NH2] (Ac-C[Cit]QYFP[dA]ILC-NH2; disulfide 1-10)
≤ 0.01 | < 0.00158 | CCCC[C@@H]1NC(=O)[C@H](CCCNC(=N)N)NC(=O)[C@@H](NC(=O)[C@@H](CC(C)C)NC(=O)[C@H](CC(=O)O)NC(C)=O)CSSC[C@@H](C(N)=O)NC(=O)[C@H](CC(C)C)NC(=O)[C@H]([C@@H](C)CC)NC(=O)[C@H](C)NC(=O)[C@@H]2CCCN2C(=O)[C@H](Cc2ccccc2)NC(=O)[C@H](Cc2ccc(O)cc2)NC1=O [UPAR-244, Ac-Asp-leu-[Cys-Arg-Nle-Tyr-Phe-Pro-Ala-Ile-Leu-Cys]-NH2] (Ac-D[dL]CR[Nle]YFPAILC-NH2; disulfide 3-12)

SMILES | IC50 [1] [µM] | Kd (human uPAR (uPAR-Fc)) [µM]
CCCCOC(=O)N[C@H]1CSSC[C@@H](C(N)=O)NC(=O)[C@H](CCC)NC(=O)[C@H]([C@@H](C)CC)NC(=O)[C@@H]2C[C@@H](O)CN2C(=O)[C@@H]2C[C@H](F)CN2C(=O)[C@H](Cc2ccccc2)NC(=O)[C@H](Cc2ccc(O)cc2)NC(=O)[C@H](CCNC(=O)CN2CCN(CC(=O)O)CCN(CC(=O)O)CCN(CC(=O)O)CC2)NC(=O)[C@H]([C@@H](C)O)NC1=O [UPAR-228, Butoc-[Cys-Thr-Dab(DOTA)-Tyr-Phe-4Cfp-Hyp-Ile-Nva-Cys]-NH2] (Butoxycarbonyl-CT[Dab](DOTA)YF[Pro(cis-4-F)][Hyp]I[Nva]C-NH2; disulfide 1-10) | ≤ 0.01 | < 0.00158
CCCCOC(=O)N[C@H]1CSSC[C@@H](C(N)=O)NC(=O)[C@H](CCC)NC(=O)[C@H]([C@@H](C)CC)NC(=O)[C@@H]2C[C@@H](O)CN2C(=O)[C@@H]2C[C@H](F)CN2C(=O)[C@H](Cc2ccccc2)NC(=O)[C@H](Cc2ccc(O)c(N)c2)NC(=O)[C@H](CCCNC(=O)CN2CCN(CC(=O)O)CCN(CC(=O)O)CCN(CC(=O)O)CC2)NC(=O)[C@H]([C@@H](C)O)NC1=O [UPAR-234, Butoc-[Cys-Thr-Orn(DOTA)-Ay3-Phe-4Cfp-Hyp-Ile-Nva-Cys]-NHz] (Butoxycarbonyl-CT[Orn](DOTA)[Tyr(3-NH2)]F[Pro(cis-4-F)][Hyp]I[Nva]C-NH2; disulfide 1-10) | ≤ 0.01 | < 0.00158
CCCCOC(=O)N[C@H]1CSSC[C@@H](C(N)=O)NC(=O)[C@H](CCC)NC(=O)[C@H]([C@@H](C)CC)NC(=O)[C@@H]2C[C@@H](O)CN2C(=O)[C@@H]2C[C@H](F)CN2C(=O)[C@H](Cc2ccccc2)NC(=O)[C@H](Cc2ccc(O)cc2)NC(=O)[C@H](CCCCNC(=O)CN2CCN(CC(=O)O)CCN(CC(=O)O)CCN(CC(=O)O)CC2)NC(=O)[C@H]([C@@H](C)O)NC1=O [UPAR-237, Butoc-[Cys-Thr-Lys(DOTA)-Tyr-Phe-4Cfp-Hyp-Ile-Nva-Cys]-NH2] (Butoxycarbonyl-CTK(DOTA)YF[Pro(cis-4-F)][Hyp]I[Nva]C-NH2; disulfide 1-10) | ≤ 0.01 | < 0.00158
